According to patent US4181710A, “Rumen-stable pellets” (Eastman Kodak Company, priority 1978, dated 1980):
In brackets after ≈: the same amount, converted by molar mass.

Test: Solubility of amino acids in water
Format: physicochemical
Settings: at 25° C.

Row | Structure (SMILES) | solubility [mg/mL]
1 | CC(N)C(=O)O (racemic) [DL - Alanine] | 167 (≈ 1870 mM)
2 | CSCCC(N)C(=O)O (racemic) [DL - Methionine] | 40 (≈ 268 mM)
